Experimental data: patent US4442044A, “Process for preparing monoesters and diesters of N-alkyl substituted amino methyl phosphonic acid” (priority 1983, dated 1984)

Legend:
Experiment in all cases: post-emergent herbicidal activity, greenhouse
Assay type in all cases: in vivo
Hemp Sesbania = details: Table II, 2 WAT
In short: (§1)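 Seeds or propagules sown in compacted top soil, grown 2–3 weeks in greenhouse, then sprayed with compound solution/suspension containing ~0.4% emulsifier at tabulated rates. Injury scored visually versus untreated controls at ~2 and 4 weeks after treatment, expressed as a herbicidal activity index.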

Wheat = details: Table II, 2 WAT
In short: as §1

Sugar Beet = details: Table II, 2 WAT
In short: as §1

Johnsongrass = details: Table I, 2 WAT
In short: as §1

Panicum Spp = details: Table II, 2 WAT
In short: as §1

Crabgrass = details: Table II, 2 WAT
In short: as §1

Barnyardgrass = details: 2 WAT
In short: as §1

Cocklebur = details: 2 WAT
In short: as §1

Lambsquarters = details: 2 WAT
In short: as §1

Downy Brome = details: 2 WAT
In short: as §1

Wild Buckwheat = details: Table II, 2 WAT
In short: as §1

Yellow Nutsedge = details: Table I, 2 WAT
In short: as §1

Canada Thistle = details: Table I, 2 WAT
In short: as §1

Quackgrass = details: Table I, 2 WAT
In short: as §1

Rice = details: Table II, 2 WAT
In short: as §1

Soybean = details: Table II, 2 WAT
In short: as §1

Morningglory = details: 2 WAT
In short: as §1

Smartweed = details: 2 WAT
In short: as §1

Sorghum = details: Table II, 2 WAT
In short: as §1

Velvetleaf = details: 2 WAT
In short: as §1

CCOC(=O)CNCP(=O)(OCC(=O)OCC)OCC(=O)OCC [Example 13, glycine, N-[bis(ethoxycarbonylmethoxy)phosphinylmethyl]-, ethyl ester]
post-emergent herbicidal activity index (Hemp Sesbania; 0.28 kg/h): 0 (0-24% control)
post-emergent herbicidal activity index (Hemp Sesbania; 1.12 kg/h): 1 (25-49% control)
post-emergent herbicidal activity index (Wheat; 0.28 kg/h): 0 (0-24% control)
post-emergent herbicidal activity index (Wheat; 1.12 kg/h): 0 (0-24% control)
post-emergent herbicidal activity index (Wheat; 5.6 kg/h): 2 (50-74% control)
post-emergent herbicidal activity index (Sugar Beet; 0.28 kg/h): 0 (0-24% control)
post-emergent herbicidal activity index (Sugar Beet; 1.12 kg/h): 0 (0-24% control)
post-emergent herbicidal activity index (Sugar Beet; 5.6 kg/h): 0 (0-24% control)
post-emergent herbicidal activity index (Johnsongrass; 5.6 kg/h): 0 (0-24% control)
post-emergent herbicidal activity index (Johnsongrass; 11.2 kg/h): 0 (0-24% control)
post-emergent herbicidal activity index (Panicum Spp; 0.28 kg/h): 0 (0-24% control)
post-emergent herbicidal activity index (Panicum Spp; 1.12 kg/h): 0 (0-24% control)
post-emergent herbicidal activity index (Panicum Spp; 5.6 kg/h): 0 (0-24% control)
post-emergent herbicidal activity index (Crabgrass; 0.28 kg/h): 0 (0-24% control)
post-emergent herbicidal activity index (Crabgrass; 1.12 kg/h): 0 (0-24% control)
post-emergent herbicidal activity index (Crabgrass; 5.6 kg/h): 3 (75-99% control)
post-emergent herbicidal activity index (Barnyardgrass; Table I, 5.6 kg/h): 0 (0-24% control)
post-emergent herbicidal activity index (Barnyardgrass; Table I, 11.2 kg/h): 0 (0-24% control)
post-emergent herbicidal activity index (Barnyardgrass; Table II, 0.28 kg/h): 0 (0-24% control)
post-emergent herbicidal activity index (Barnyardgrass; Table II, 1.12 kg/h): 0 (0-24% control)
post-emergent herbicidal activity index (Barnyardgrass; Table II, 5.6 kg/h): 1 (25-49% control)
post-emergent herbicidal activity index (Cocklebur; Table I, 5.6 kg/h): 0 (0-24% control)
post-emergent herbicidal activity index (Cocklebur; Table I, 11.2 kg/h): 0 (0-24% control)
post-emergent herbicidal activity index (Cocklebur; Table II, 0.28 kg/h): 0 (0-24% control)
post-emergent herbicidal activity index (Cocklebur; Table II, 1.12 kg/h): 0 (0-24% control)
post-emergent herbicidal activity index (Cocklebur; Table II, 5.6 kg/h): 1 (25-49% control)
post-emergent herbicidal activity index (Lambsquarters; Table I, 11.2 kg/h): 0 (0-24% control)
post-emergent herbicidal activity index (Lambsquarters; Table II, 1.12 kg/h): 0 (0-24% control)
post-emergent herbicidal activity index (Downy Brome; Table I, 5.6 kg/h): 0 (0-24% control)
post-emergent herbicidal activity index (Downy Brome; Table I, 11.2 kg/h): 0 (0-24% control)
post-emergent herbicidal activity index (Downy Brome; Table II, 0.28 kg/h): 0 (0-24% control)
post-emergent herbicidal activity index (Downy Brome; Table II, 1.12 kg/h): 0 (0-24% control)
post-emergent herbicidal activity index (Downy Brome; Table II, 5.6 kg/h): 0 (0-24% control)
post-emergent herbicidal activity index (Wild Buckwheat; 0.28 kg/h): 0 (0-24% control)
post-emergent herbicidal activity index (Wild Buckwheat; 1.12 kg/h): 0 (0-24% control)
post-emergent herbicidal activity index (Wild Buckwheat; 5.6 kg/h): 0 (0-24% control)
post-emergent herbicidal activity index (Yellow Nutsedge; 5.6 kg/h): 0 (0-24% control)
post-emergent herbicidal activity index (Yellow Nutsedge; 11.2 kg/h): 0 (0-24% control)
post-emergent herbicidal activity index (Canada Thistle; 5.6 kg/h): 0 (0-24% control)
post-emergent herbicidal activity index (Canada Thistle; 11.2 kg/h): 0 (0-24% control)
post-emergent herbicidal activity index (Quackgrass; 5.6 kg/h): 1 (25-49% control)
post-emergent herbicidal activity index (Quackgrass; 11.2 kg/h): 0 (0-24% control)
post-emergent herbicidal activity index (Rice; 0.28 kg/h): 0 (0-24% control)
post-emergent herbicidal activity index (Rice; 1.12 kg/h): 0 (0-24% control)
post-emergent herbicidal activity index (Rice; 5.6 kg/h): 0 (0-24% control)
post-emergent herbicidal activity index (Soybean; 0.28 kg/h): 0 (0-24% control)
post-emergent herbicidal activity index (Soybean; 1.12 kg/h): 0 (0-24% control)
post-emergent herbicidal activity index (Soybean; 5.6 kg/h): 1 (25-49% control)
post-emergent herbicidal activity index (Morningglory; Table I, 5.6 kg/h): 0 (0-24% control)
post-emergent herbicidal activity index (Morningglory; Table I, 11.2 kg/h): 1 (25-49% control)
post-emergent herbicidal activity index (Morningglory; Table II, 0.28 kg/h): 0 (0-24% control)
post-emergent herbicidal activity index (Morningglory; Table II, 1.12 kg/h): 0 (0-24% control)
post-emergent herbicidal activity index (Morningglory; Table II, 5.6 kg/h): 1 (25-49% control)
post-emergent herbicidal activity index (Smartweed; Table I, 5.6 kg/h): 0 (0-24% control)
post-emergent herbicidal activity index (Smartweed; Table I, 11.2 kg/h): 0 (0-24% control)
post-emergent herbicidal activity index (Smartweed; Table II, 0.28 kg/h): 0 (0-24% control)
post-emergent herbicidal activity index (Smartweed; Table II, 1.12 kg/h): 0 (0-24% control)
post-emergent herbicidal activity index (Smartweed; Table II, 5.6 kg/h): 1 (25-49% control)
post-emergent herbicidal activity index (Sorghum; 0.28 kg/h): 0 (0-24% control)
post-emergent herbicidal activity index (Sorghum; 1.12 kg/h): 0 (0-24% control)
post-emergent herbicidal activity index (Sorghum; 5.6 kg/h): 1 (25-49% control)
post-emergent herbicidal activity index (Velvetleaf; Table I, 5.6 kg/h): 0 (0-24% control)
post-emergent herbicidal activity index (Velvetleaf; Table I, 11.2 kg/h): 0 (0-24% control)
post-emergent herbicidal activity index (Velvetleaf; Table II, 0.28 kg/h): 0 (0-24% control)
post-emergent herbicidal activity index (Velvetleaf; Table II, 1.12 kg/h): 0 (0-24% control)
post-emergent herbicidal activity index (Velvetleaf; Table II, 5.6 kg/h): 1 (25-49% control)
